Laboratory results: patent US9586931B2 (Merck Sharp & Dohme Corp., priority 2012, dated 2017)

target: T1, recombinant human GST-Syk (Homo sapiens, UniProt P43405); experiment: Homogeneous Time-Resolved Fluorescence (HTRF) assay for the recombinant human Syk enzyme; assay type: biochemical; details: recombinant human GST-Syk 5 pM, ATP 25 μM, 10-dose titration 10 μM to 0.508 nM; read-out: rhSYK Activity IC50
T1 construct: purchased Carna Biosciences 08-176
Method: Syk inhibition may be determined using the following assay protocol:
Homogeneous Time-Resolved Fluorescence (HTRF) assay for the recombinant human Syk enzyme: A recombinant GST-hSyk fusion protein was used to measure potency of compounds to inhibit human Syk activity. […] Final volume of the reaction was 10 μL. Phosphorylation of the peptide was allowed to proceed for 45 minutes at room temperature. To quench the reaction and detect the phosphorylated product, 2 nM of a Europium-anti-phosphotyrosine antibody (Perkin Elmer #AD0161) and 70 nM SA-APC (Perkin-Elmer #CR130-100) were added together in 15 mM Tris pH 7.5, 40 mM EDTA, 0.01% tween 20. Final volume of the quenching solution was 10 μL. The resulting HTRF signal was measured after 30 minutes on an EnVision (Perkin-Elmer) reader using a time-resolved fluorescence protocol.

First: Cc1cc(Nc2cc(C(F)(F)F)ccn2)nc(-c2cn(C(C)C(=O)NCCc3c[nH]c4ccc(OCc5ccccc5)cc34)nn2)c1 (centres unmarked) [Example 1.30, N-{2-[5-(benzyloxy)-1H-indol-3-yl]ethyl}-2-[4-(4-methyl-6-{[4-(trifluoromethyl)pyridin-2-yl]amino}pyridin-2-yl)-1H-1,2,3-triazol-1-yl]propanamide]
Second: Cc1cc(Nc2cc(C(F)(F)F)ccn2)nc(-c2cn(C(C)C(=O)NCc3cc4ccc(F)cc4[nH]c3=O)nn2)c1 (centres unmarked) [Example 1.43, N-[(7-fluoro-2-oxo-1,2-dihydroquinolin-3-yl)methyl]-2-[4-(4-methyl-6-{[4-(trifluoromethyl)pyridin-2-yl]amino}pyridin-2-yl)-1H-1,2,3-triazol-1-yl]propanamide]
The IC50 of the first is 25-fold higher: 1620 nM for the first, 64.2 nM for the second. The second is the more potent here.

First: Cc1cc(Nc2cc(C(F)F)ccn2)nc(-c2cn(CC(C)(O)CO)nn2)c1 (centres unmarked) [Example 21.39, 3-(4-(6-((4-(difluoromethyl)pyridin-2-yl)amino)-4-methylpyridin-2-yl)-1H-1,2,3-triazol-1-yl)-2-methylpropane-1,2-diol]
Second: Cc1cc(Nc2cc(C(F)(F)F)ccn2)nc(-c2cn(CC(C)(O)CO)nn2)c1 (centres unmarked) [Example 10.14, 2-methyl-3-[4-(4-methyl-6-{[4-(trifluoromethyl)pyridin-2-yl]amino}pyridin-2-yl)-1H-1,2,3-triazol-1-yl]propane-1,2-diol]
The IC50 of the first is 5.1-fold lower: 1.8 nM for the first, 9.1 nM for the second. The first is the more potent here.

First: Cc1cc(Nc2cc(C(F)(F)F)ccn2)nc(-c2cn(C3CCC(C(=O)O)C(C)(C)C3)nn2)c1 (single isomer, unassigned) [Example 3.8, 2,2-dimethyl-4-[4-(4-methyl-6-{[4-(trifluoromethyl)pyridin-2-yl]amino}pyridin-2-yl)-1H-1,2,3-triazol-1-yl]cyclohexanecarboxylic acid]
Second: COC(=O)C1CCC(n2cc(-c3cc(C)cc(Nc4cc(C(F)(F)F)ccn4)n3)nn2)CC1(C)C (centres unmarked) [Example 9.3, methyl 2,2-dimethyl-4-[4-(4-methyl-6-{[4-(trifluoromethyl)pyridin-2-yl]amino}pyridin-2-yl)-1H-1,2,3-triazol-1-yl]cyclohexane-carboxylate]
The IC50 of the first is 32-fold lower: 9.8 nM for the first, 313 nM for the second.

CCOC(=O)Cn1cc(-c2cc(C)cc(Nc3cc(C(F)(F)F)ccn3)n2)nn1 [Example 5.100, ethyl [4-(4-methyl-6-{[4-(trifluoromethyl)pyridin-2-yl]amino}pyridin-2-yl)-1H-1,2,3-triazol-1-yl]acetate] and CCOC(=O)C(O)C(O)Cn1cc(-c2cc(C)cc(Nc3cc(C(F)(F)F)ccn3)n2)nn1 (centres unmarked) [Example 10.9, ethyl 2,3-dihydroxy-4-[4-(4-methyl-6-{[4-(trifluoromethyl)pyridin-2-yl]amino}pyridin-2-yl)-1H-1,2,3-triazol-1-yl]butanoate] are within 1.5-fold of each other in IC50: 27.7 nM for the first, 33.1 nM for the second.

Compared with Cc1ccnc(Nc2cc(C)cc(-c3cn(C[C@H](C)CO)nn3)n2)c1 [Example 5.16, (2S)-2-methyl-3-(4-{4-methyl-6-[(4-methylpyridin-2-yl)amino]pyridin-2-yl}-1H-1,2,3-triazol-1-yl)propan-1-ol], Cc1cc(Nc2cc(C(C)F)ccn2)nc(-c2cn(CC(C)(O)C(C)(C)O)nn2)c1 (centres unmarked) [Example 21.32, 1-[4-(6-{[4-(1-fluoroethyl)pyridin-2-yl]amino}-4-methylpyridin-2-yl)-1H-1,2,3-triazol-1-yl]-2,3-dimethylbutane-2,3-diol] is 11-fold lower in IC50: 235 nM for the first, 22.2 nM for the second.

Compared with Cc1cc(Nc2cc(C(F)(F)F)ccn2)nc(-c2cn(C(C)C(O)CC#N)nn2)c1 (centres unmarked) [Example 4.10, 3-hydroxy-4-[4-(4-methyl-6-{[4-(trifluoromethyl)pyridin-2-yl]amino}pyridin-2-yl)-1H-1,2,3-triazol-1-yl]pentanenitrile], CC(C)=CCn1cc(-c2cc(C)cc(Nc3cc(C(F)(F)F)ccn3)n2)nn1 [Example 5.37, 4-methyl-6-[1-(3-methylbut-2-en-1-yl)-1H-1,2,3-triazol-4-yl]-N-[4-(trifluoromethyl)pyridin-2-yl]pyridin-2-amine] is 5.3-fold higher in IC50: 5.7 nM for the first, 30.2 nM for the second. The first is the more potent here.

First: Cc1cc(Nc2cc(C(F)(F)F)ccn2)nc(-c2cn(CC(O)CN3CCCC3=O)nn2)c1 (centres unmarked) [Example 4.30, 1-{2-hydroxy-3-[4-(4-methyl-6-{[4-(trifluoromethyl)pyridin-2-yl]amino}pyridin-2-yl)-1H-1,2,3-triazol-1-yl]propyl}pyrrolidin-2-one]
Second: Cc1cc(Nc2cc(C(F)(F)F)ccn2)nc(-c2cn(CC3(O)CCC(C(=O)O)C(C)(C)C3)nn2)c1 (centres unmarked) [Example 3.5, 4-hydroxy-2,2-dimethyl-4-{[4-(4-methyl-6-{[4-(trifluoromethyl)pyridin-2-yl]amino}pyridin-2-yl)-1H-1,2,3-triazol-1-yl]methyl}cyclohexanecarboxylic acid]
The IC50 of the first is 2.6-fold lower: 26.6 nM for the first, 70.4 nM for the second.

Cc1cc(Nc2nccc(C(F)(F)F)n2)cc(-c2cn(C3CS(=O)(=O)CC3O)nn2)c1 (centres unmarked) [Example 5.63, 4-[4-(3-methyl-5-{[4-(trifluoromethyl)pyrimidin-2-yl]amino}phenyl)-1H-1,2,3-triazol-1-yl]tetrahydrothiophene-3-ol 1,1-dioxide] and Cc1cc(Nc2nccc(C(F)(F)F)n2)cc(-c2cn(C3COCC3O)nn2)c1 (single isomer, unassigned) [Example 4.8, 4-[4-(3-methyl-5-{[4-(trifluoromethyl)pyrimidin-2-yl]amino}phenyl)-1H-1,2,3-triazol-1-yl]tetrahydrofuran-3-ol] are within 1.5-fold of each other in IC50: 24.1 nM for the first, 35.1 nM for the second.

First: Cc1cc(Nc2nccc(C(F)(F)F)n2)cc(-c2cn(C3CCC(C(=O)O)CC3)nn2)c1 (centres unmarked) [Example 3.16, 4-[4-(3-methyl-5-{[4-(trifluoromethyl)pyrimidin-2-yl]amino}phenyl)-1H-1,2,3-triazol-1-yl]cyclohexanecarboxylic acid]
Second: Cc1cc(Nc2nccc(C(F)(F)F)n2)cc(-n2cc([C@]3(O)CC[C@H](C(=O)O)CC3)nn2)c1 [Example 15.3, trans-4-hydroxy-4-[1-(3-methyl-5-{[4-(trifluoromethyl)pyrimidin-2-yl]amino}phenyl)-1H-1,2,3-triazol-4-yl]cyclohexanecarboxylic acid]
The IC50 of the first is 7-fold lower: 33.3 nM for the first, 232 nM for the second. The first is the more potent here.

Going from Cc1cc(Nc2cc(C(F)(F)F)ccn2)nc(-c2c[nH]nn2)c1 [Example 5.101, 4-methyl-6-(1H-1,2,3-triazol-4-yl)-N-[4-(trifluoromethyl)pyridin-2-yl]pyridin-2-amine] to Cc1cc(Nc2cc(C(F)(F)F)ccn2)nc(-c2cn(-c3ccc(Br)cn3)nn2)c1 [6.2], the IC50 rises from 25.2 nM to 1130 nM (45-fold).

First: Cc1cc(Nc2cc(C(F)F)ccn2)nc(-c2cn(C3CCCCC3O)nn2)c1 (single isomer, unassigned) [Example 7.24, 2-[4-(6-{[4-(difluoromethyl)pyridin-2-yl]amino}-4-methylpyridin-2-yl)-1H-1,2,3-triazol-1-yl]cyclohexanol]
Second: Cc1cc(Nc2nccc(C(F)F)n2)cc(-c2cn(C3CCCCC3O)nn2)c1 (centres unmarked) [Example 4.35, 2-[4-(3-{[4-(difluoromethyl)pyrimidin-2-yl]amino}-5-methylphenyl)-1H-1,2,3-triazol-1-yl]cyclohexanol]
The IC50 of the first is 9.2-fold lower: 1.2 nM for the first, 11 nM for the second.

Going from Cc1cc(Nc2nccc(C(F)(F)F)n2)cc(-c2cn(C(C)C(O)CC#N)nn2)c1 (single isomer, unassigned) [Example 4.6, 3-hydroxy-4-[4-(3-methyl-5-{[4-(trifluoromethyl)pyrimidin-2-yl]amino}phenyl)-1H-1,2,3-triazol-1-yl]pentanenitrile] to Cc1cc(Nc2nccc(C(F)(F)F)n2)cc(-c2cn(CCCN3CCOCC3)nn2)c1 [Example 5.51, N-{3-mcthyl-5-[1-(3-morpholin-4-ylpropyl)-1H-1,2,3-triazol-4-yl]phenyl}-4-(trifluoromethyl)pyrimidin-2-amine], the IC50 rises from 45.5 nM to 177 nM (3.9-fold).

Compared with Cc1cc(Nc2cc(C(F)(F)F)ccn2)nc(-c2cn(C(C)C(=O)N3CCc4cc(O)c(O)cc4C(c4ccccc4)C3)nn2)c1 (centres unmarked) [Example 1.54, 3-{2-[4-(4-methyl-6-{[4-(trifluoromethyl)pyridin-2-yl]amino}pyridin-2-yl)-1H-1,2,3-triazol-1-yl]propanoyl}-1-phenyl-2,3,4,5-tetrahydro-1H-3-benzazepine-7,8-diol], Cc1cc(Nc2cc(F)ccn2)nc(-c2cn(C(C)c3ccc(C(=O)O)cc3)nn2)c1 (centres unmarked) [Example 2.2, 4-[1-(4-{6-[(4-fluoropyridin-2-yl)amino]-4-methylpyridin-2-yl}-1H-1,2,3-triazol-1-yl)ethyl]benzoic acid] is 15-fold lower in IC50: 134 nM for the first, 8.88 nM for the second.

Going from Cc1cc(Nc2nccc(C(F)(F)F)n2)cc(-n2cc([C@]3(O)CC[C@@H](C(=O)OC(C)(C)C)CC3)nn2)c1 [Example 15.6, tert-butyl cis-4-hydroxy-4-[1-(3-methyl-5-{[4-(trifluoromethyl)pyrimidin-2-yl]amino}phenyl)-1H-1,2,3-triazol-4-yl]cyclohexanecarboxylate] to Cc1cc(Nc2nccc(C(F)F)n2)cc(-c2cn(CC3(O)CNC(=O)C3)nn2)c1 (single isomer, unassigned) [Example 31.1, 4-((4-(3-((4-(Difluoromethyl)pyrimidin-2-yl)amino)-5-methylphenyl)-1H-1,2,3-triazol-1-yl)methyl)-4-hydroxypyrrolidin-2-one], the IC50 falls from 850 nM to 7.3 nM (120-fold).

same assay, conditions: rhSYK Activity IC50, recombinant human GST-Syk 5 pM, ATP 25 μM, 10-dose titration 10 μM to 0.508 nM

Cc1cc(Nc2nccc(C(F)(F)F)n2)cc(-c2cn(CCNC(N)=O)nn2)c1 [Example 5.56, 1-{2-[4-(3-methyl-5-{[4-(trifluoromethyl)pyrimidin-2-yl]amino}phenyl)-1H-1,2,3-triazol-1-yl]ethyl}urea] was tested, and the IC50 was 76.8 nM.
